No end group written: not given here.

This passage reports EC50 and Ki results from article PMC8396344, “Palmitoylation of Prolactin-Releasing Peptide Increased Affinity for and Activation of the GPR10, NPFF-R2 and NPFF-R1 Receptors: In Vitro Study” (International Journal of Molecular Sciences, 2021).

The target of one assay is T1, Y5 (Homo sapiens, UniProt Q15761).
T1 construct: host or cells: U2OS
T1 sequence (Q15761 1-445): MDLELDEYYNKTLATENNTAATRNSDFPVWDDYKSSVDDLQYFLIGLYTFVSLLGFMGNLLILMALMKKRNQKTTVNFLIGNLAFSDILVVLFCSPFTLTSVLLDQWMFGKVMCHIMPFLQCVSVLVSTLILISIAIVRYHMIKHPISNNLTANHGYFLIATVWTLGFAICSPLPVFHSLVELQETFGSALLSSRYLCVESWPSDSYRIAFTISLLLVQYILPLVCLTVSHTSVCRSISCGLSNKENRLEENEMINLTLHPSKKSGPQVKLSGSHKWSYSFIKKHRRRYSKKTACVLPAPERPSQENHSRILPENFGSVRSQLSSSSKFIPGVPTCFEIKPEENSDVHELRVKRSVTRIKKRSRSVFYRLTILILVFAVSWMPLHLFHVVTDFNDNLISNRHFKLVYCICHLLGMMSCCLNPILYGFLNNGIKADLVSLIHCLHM
The experiment in a line: Beta-lactamase reporter gene assay (FRET), Y5. Format: cell-based.

The target in assay [1] is T2, KOR (Homo sapiens, UniProt P41145).
T2 construct: host or cells: CHO-K1
Nature of the assay: Competitive and saturation binding, [^125I]-dynorphin, membranes of CHO-K1 cells with KOR. To be noted: competition with [^125I]-dynorphin A, CHO-K1 membranes 5 µg protein/tube, 60 min RT; mean ± SEM, 2–5 independent experiments in duplicates; Cheng-Prusoff. The method, then:
Pellets of CHO-K1 cells containing NPFF-R2, NPFF-R1 and KOR receptors were homogenized in ice-cold homogenizing buffer (20 mM HEPES pH 7.1, 5 mM MgCl2, 0.7 mM bacitracin) with a DIAX 100 Homogenizer (Heidolph Instruments, Schwabach, Germany) and centrifuged in an ultracentrifuge (Beckman Coulter, Fullerton, CA, USA) at 26,000× g for 15 min at 4 °C. The pellets were homogenized in ice-cold homogenization buffer, and the previous steps were repeated 2 more times. After the third centrifugation, pellets were resuspended in ice-cold storage buffer (50 mM Tris-Cl pH 7.4, 0.5 mM EDTA, 10 mM MgCl2, 10% sucrose), and aliquots were stored at −80 °C. The concentration of isolated membrane proteins was determined by a PierceTM BCA Protein Assay Kit (Pierce, Rockford, IL, USA). […]
(§1) Experiments were carried out in duplicate at least three times, and Ki was calculated using the Cheng-Prusoff equation.
Data were analyzed by GraphPad Software (San Diego, CA, USA) and are presented as the means ± SEM. The saturation and competitive binding experiments were analyzed according to [46] using the Cheng-Prusoff equation [33]. […] From saturation binding experiments, the dissociation constant (Kd) and number of binding sites/cell (Bmax) were calculated. Inhibition constants (Ki) were calculated from IC50 values, Kd and the concentration of radioligands.

For a further assay, the target named is T3, Y1 (Homo sapiens, UniProt P25929).
T3 construct: host or cells: U2OS
T3 sequence (P25929 1-384): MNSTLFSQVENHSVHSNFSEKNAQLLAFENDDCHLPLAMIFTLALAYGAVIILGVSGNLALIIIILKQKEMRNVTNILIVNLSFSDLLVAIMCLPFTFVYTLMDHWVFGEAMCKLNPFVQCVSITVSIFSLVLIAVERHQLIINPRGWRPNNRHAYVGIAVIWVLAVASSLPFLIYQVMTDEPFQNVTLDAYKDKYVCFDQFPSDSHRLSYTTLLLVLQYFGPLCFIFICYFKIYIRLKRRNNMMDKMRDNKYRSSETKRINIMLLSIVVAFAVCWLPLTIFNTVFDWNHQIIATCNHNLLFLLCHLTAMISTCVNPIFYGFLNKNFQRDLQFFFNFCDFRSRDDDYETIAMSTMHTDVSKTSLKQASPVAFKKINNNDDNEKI
Nature of the assay: Competitive and saturation binding, [^125I]-PYY, U2OS cells with Y1. The method, then:
(§2) Competition binding experiments were performed according to [45]. […] Binding experiments using U2OS cells were optimized and performed in assay buffer (50 mM Tris-Cl pH 7.4, 118 mM NaCl, 5 mM MgCl2, 4.7 mM KCl, 0.1% BSA) for cells stably expressing GHSR and (25 mM HEPES, 120 mM NaCl, 5 mM MgCl2, 4.7 mM KCl, 1 mM CaCl2, 0.5% BSA, 2 g/L glucose) for cells containing receptors Y1, Y2 and Y5. […] Cells were incubated for 60 min at room temperature (RT).
as §1
(§3) Data were analyzed by GraphPad Software (San Diego, CA, USA) and are presented as the means ± SEM. The saturation and competitive binding experiments were analyzed according to [46] using the Cheng-Prusoff equation [33]. The competitive binding curves were plotted compared to the best fit for single-binding site models, and half maximal inhibitory concentration (IC50) values were obtained from nonlinear regression analysis. From saturation binding experiments, the dissociation constant (Kd) and number of binding sites/cell (Bmax) were calculated. Inhibition constants (Ki) were calculated from IC50 values, Kd and the concentration of radioligands.

A further assay addresses T4, MOR (Homo sapiens, UniProt P35372).
T4 construct: host or cells: U2OS
The experiment in a line: Beta-lactamase reporter gene assay (FRET), MOR. Format: cell-based. On the technique in general: A reporter such as luciferase makes a cellular process visible.

For a further assay, the target named is T5, GHSR (Homo sapiens, UniProt Q92847).
T5 construct: host or cells: U2OS
Nature of the assay: Competitive and saturation binding, [^125I]-ghrelin, U2OS cells with GHSR. The method, then:
as §2, §1, §3

In another assay the target is T6, NPFF-R1 (Homo sapiens, UniProt Q9GZQ6).
T6 construct: host or cells: CHO-K1 (isolated membranes)
The experiment in a line: Competitive and saturation binding, [^125I]-1DMe, membranes of CHO-K1 cells with NPFF-R1. Here is the method: as §1, §3

Another assay has as its target T7, DOR (Homo sapiens, UniProt P41143).
T7 construct: host or cells: U2OS
Nature of the assay: Beta-lactamase reporter gene assay (FRET), DOR. Format: cell-based. To be noted: β-lactamase assay, agonist mode, U2OS cells; mean ± SEM, 2–3 independent experiments in duplicates.

The target of the next assay is T8, ORL-1 (Homo sapiens, UniProt P41146).
T8 construct: host or cells: U2OS
The experiment in a line: Beta-lactamase reporter gene assay (FRET), ORL-1. Format: cell-based. The conditions noted are these: β-lactamase assay, agonist mode, U2OS cells; mean ± SEM, 2–3 independent experiments in duplicates.

For assay [2], the target named is T2, KOR. Nature of the assay: cell-based.
Another assay has as its target T9, Y2 (Homo sapiens, UniProt P49146).
T9 construct: host or cells: U2OS
T9 sequence (P49146 1-381): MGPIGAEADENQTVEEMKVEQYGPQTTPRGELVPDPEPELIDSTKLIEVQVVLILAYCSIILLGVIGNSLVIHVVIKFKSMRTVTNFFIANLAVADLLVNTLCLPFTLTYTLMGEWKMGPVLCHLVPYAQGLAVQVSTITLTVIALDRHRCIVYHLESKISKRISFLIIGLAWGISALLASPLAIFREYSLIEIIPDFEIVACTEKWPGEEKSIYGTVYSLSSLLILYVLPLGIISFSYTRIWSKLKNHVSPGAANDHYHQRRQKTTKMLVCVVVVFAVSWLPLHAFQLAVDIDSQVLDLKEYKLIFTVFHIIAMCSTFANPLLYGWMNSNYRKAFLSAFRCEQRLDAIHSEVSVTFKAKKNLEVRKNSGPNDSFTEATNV
Nature of the assay: Competitive and saturation binding, [^125I]-PYY, U2OS cells with Y2. The method, then:
as §2, §1, §3

In general, EC50 refers to the concentration giving half of the maximal effect. Broadly, the Ki is the dissociation constant of the complex between target and ligand, obtained from inhibition or displacement. Low readings indicate a stronger hold on the target, high ones a looser hold on the target. Consider `CCCCCCCCCCCCCCCC(=O)N[C@@H](CO)C(=O)N[C@@H](CCCNC(=N)N)C(=O)N[C@H](C(=O)N[C@@H](Cc1c[nH]cn1)C(=O)N[C@@H](CCCNC(=N)N)C(=O)N[C@@H](Cc1c[nH]cn1)C(=O)N[C@@H](CO)C(=O)N[C@@H](CCSC)C(=O)N[C@@H](CCC(=O)O)C(=O)N[C@H](C(=O)N[C@@H](CCCNC(=N)N)C(=O)N[C@H](C(=O)N1CCC[C@H]1C(=O)N[C@@H](CC(=O)O)C(=O)N[C@H](C(=O)N[C@@H](CC(N)=O)C(=O)N1CCC[C@H]1C(=O)N[C@@H](C)C(=O)N[C@@H](Cc1c[nH]c2ccccc12)C(=O)N[C@@H](Cc1ccc(O)cc1)C(=O)N[C@@H](C)C(=O)N[C@@H](CO)C(=O)N[C@@H](CCCNC(=N)N)C(=O)NCC(=O)N[C@H](C(=O)N[C@@H](CCCNC(=N)N)C(=O)N1CCC[C@H]1C(=O)N[C@H](C(=O)NCC(=O)N[C@@H](CCCNC(=N)N)C(=O)N[C@@H](Cc1ccccc1)C(N)=O)C(C)C)[C@@H](C)CC)[C@@H](C)CC)[C@@H](C)O)[C@@H](C)CC)[C@@H](C)O` [Palm-PrRP31], for which the EC50 at Y5 was 0.0565 ± 0.0184 µM; at MOR it was > 10 µM; at DOR it was > 10 µM; at ORL-1, > 10 µM; on KOR [2] it was > 10 µM. Also, the Ki is 0.106 ± 0.015 µM at KOR [1]; 3.147 ± 0.031 µM on Y1; 0.16 ± 0.016 µM on GHSR; 0.00078 ± 0.00011 µM on NPFF-R1; > 10 µM on Y2.
As to “SRAHQHSMETRTPDINPAWYTGRGIRPVGRF-NH2 [PrRP31, prolactin-releasing peptide 31, reference compound]”, the EC50 at Y5, at MOR, at DOR, at ORL-1 and on KOR [2] was > 10 µM in each case. In addition, the Ki at KOR [1] is > 10 µM; at Y1, > 10 µM; at GHSR, > 10 µM; at NPFF-R1 it was 0.0404 ± 0.0042 µM; at Y2, > 10 µM.
